{"source": "ChEMBL document CHEMBL4184141", "about": "“Investigating the Antibacterial Activity of Biphenylthiazoles against Methicillin- and Vancomycin-Resistant Staphylococcus aureus (MRSA and VRSA)” (J Med Chem, 2017)", "key": {"[1]": {"test_system": "Staphylococcus aureus", "experiment": "Antibacterial activity against methicillin-resistant Staphylococcus aureus 2658 RCMB up to 20 hrs by broth microdilution assay", "type": "functional"}, "[2]": {"experiment": "Efflux ratio of permeability from basolateral to apical side over apical to basolateral side of human Caco2 cells by LC-MS/MS analysis", "type": "ADME, cell-based", "details": "Caco-2"}, "[3]": {"experiment": "Half life in human liver microsomes in absence of NADPH by LC-MS/MS analysis", "type": "ADME, microsome"}, "[4]": {"experiment": "Intrinsic clearance in human liver microsomes in absence of NADPH by LC-MS/MS analysis", "type": "ADME, microsome", "details": "read-out: CLH"}, "[5]": {"experiment": "Apparent permeability of the compound across basolateral side to apical side in human Caco2 cells by LC-MS/MS analysis", "type": "ADME, cell-based", "details": "Caco-2"}, "[6]": {"experiment": "Aqueous solubility of the compound in PBS after 2 hrs by turbidimetric method", "type": "physicochemical"}, "[7]": {"test_system": "Staphylococcus aureus", "experiment": "Bactericidal activity against methicillin-resistant Staphylococcus aureus USA300 assessed as time required for 3 log10CFU reduction in bacterial load at 4 times MIC by time kill assay", "type": "functional"}, "[8]": {"test_system": "Staphylococcus aureus", "experiment": "Potentiation of vancomycin-induced antibacterial activity against vancomycin-resistant Staphylococcus aureus VRS10 assessed as vancomycin MIC at 0.5 times MIC after 20 to 22 hrs (reference value: […] ug/mL)", "type": "functional"}, "[9]": {"test_system": "Staphylococcus aureus", "experiment": "Potentiation of vancomycin-induced antibacterial activity against vancomycin-resistant Staphylococcus aureus VRS10 assessed as reduction in vancomycin MIC after 20 hrs by checkerboard assay", "type": "functional"}, "[10]": {"test_system": "Staphylococcus aureus", "experiment": "Antibacterial activity against vancomycin-resistant Staphylococcus aureus VRS10 up to 20 hrs by broth microdilution assay", "type": "functional", "details": "VRS10, 20 h"}, "[11]": {"test_system": "HRT-18 cell line", "experiment": "Cytotoxicity against human HRT18 cells up to 128 microg/ml after 6 hrs by MTS assay", "type": "cell-based", "details": "hrt-18, 6 h"}, "[12]": {"test_system": "Staphylococcus aureus", "experiment": "Potentiation of vancomycin-induced antibacterial activity against vancomycin-resistant Staphylococcus aureus VRS10 assessed as vancomycin MIC after 20 hrs by checkerboard assay", "type": "functional", "details": "VRS10, 20 h"}, "[13]": {"test_system": "Staphylococcus aureus", "experiment": "Synergistic antibacterial activity against vancomycin-resistant Staphylococcus aureus VRS10 after 20 hrs in presence of vancomycin by checkerboard assay", "type": "functional", "details": "VRS10, 20 h"}, "[14]": {"test_system": "Staphylococcus aureus", "experiment": "Antibacterial activity against methicillin-resistant Staphylococcus aureus USA400 NRS123 up to 20 hrs by broth microdilution assay", "type": "functional", "details": "USA400 NRS123, 20 h"}, "[15]": {"test_system": "Staphylococcus aureus", "experiment": "Antibacterial activity against vancomycin-resistant Staphylococcus aureus VRS11a up to 20 hrs by broth microdilution assay", "type": "functional"}, "[16]": {"test_system": "Staphylococcus aureus", "experiment": "Bactericidal activity against vancomycin-resistant Staphylococcus aureus VRS10 up to 18 hrs by broth microdilution assay", "type": "functional", "details": "VRS10, 18 h, read-out: MBC99.9"}, "[17]": {"test_system": "Staphylococcus aureus", "experiment": "Bactericidal activity against vancomycin-resistant Staphylococcus aureus VRS11a up to 18 hrs by broth microdilution assay", "type": "functional", "details": "read-out: MBC99.9"}, "[18]": {"test_system": "Staphylococcus aureus", "experiment": "Antibacterial activity against Staphylococcus aureus RN4220 up to 20 hrs by broth microdilution assay", "type": "functional", "details": "RN4220, 20 h"}, "[19]": {"test_system": "Staphylococcus aureus", "experiment": "Bactericidal activity against vancomycin-resistant Staphylococcus aureus VRS12 up to 18 hrs by broth microdilution assay", "type": "functional", "details": "VRS12, 18 h, read-out: MBC99.9"}, "[20]": {"test_system": "Staphylococcus aureus", "experiment": "Antibacterial activity against methicillin-resistant Staphylococcus aureus NRS119 up to 20 hrs by broth microdilution assay", "type": "functional", "details": "NRS119, 20 h"}, "[21]": {"test_system": "Staphylococcus aureus", "experiment": "Bactericidal activity against methicillin-resistant Staphylococcus aureus USA400 NRS123 up to 18 hrs by broth microdilution assay", "type": "functional", "details": "USA400 NRS123, 18 h, read-out: MBC99.9"}, "[22]": {"test_system": "Staphylococcus aureus", "experiment": "Antibacterial activity against vancomycin-resistant Staphylococcus aureus VRS12 up to 20 hrs by broth microdilution assay", "type": "functional", "details": "VRS12, 20 h"}, "[23]": {"test_system": "Staphylococcus aureus", "experiment": "Bactericidal activity against Staphylococcus aureus RN4220 up to 18 hrs by broth microdilution assay", "type": "functional", "details": "RN4220, 18 h, read-out: MBC99.9"}, "[24]": {"test_system": "Staphylococcus aureus", "experiment": "Bactericidal activity against methicillin-resistant Staphylococcus aureus NRS119 up to 18 hrs by broth microdilution assay", "type": "functional", "details": "NRS119, 18 h, read-out: MBC99.9"}}, "data": [{"smiles": "Cc1nc(-c2ccc(-c3ccccc3)cc2)sc1-c1ccnc(-c2cccnc2)n1", "values": [{"measurement": "MIC", "setting": "[1]", "result": "> 25", "unit": "µg/mL"}]}, {"smiles": "CCN(CC)c1nccc(-c2sc(-c3ccc(-c4ccccc4)cc3)nc2C)n1", "values": [{"measurement": "MIC", "setting": "[1]", "result": "> 25", "unit": "µg/mL"}]}, {"smiles": "Cc1nc(-c2ccc(-c3ccccc3)cc2)sc1-c1ccnc(N(C)C)n1", "values": [{"measurement": "MIC", "setting": "[1]", "result": "> 25", "unit": "µg/mL"}]}, {"smiles": "CCCCc1ccc(-c2nc(C)c(/C(C)=N/NC(=N)N)s2)cc1", "values": [{"measurement": "efflux ratio", "setting": "[2]", "result": "> 2"}, {"measurement": "half-life", "setting": "[3]", "result": "> 4", "unit": "h"}, {"measurement": "microsomal CLint", "setting": "[4]", "result": "< 9.6", "unit": "µL/min/mg"}, {"measurement": "MIC", "setting": "[1]", "result": "4.7 to 4.8", "unit": "µg/mL"}, {"measurement": "Papp B→A", "setting": "[5]", "result": 1.2, "unit": "×10⁻⁶ cm/s"}]}, {"smiles": "Cc1nc(-c2ccc(-c3ccccc3)cc2)sc1-c1ccnc(NC(=N)c2ccccn2)n1", "values": [{"measurement": "MIC", "setting": "[1]", "result": "> 25", "unit": "µg/mL"}]}, {"smiles": "Cc1nc(-c2ccc(-c3ccccc3)cc2)sc1-c1ccncn1", "values": [{"measurement": "MIC", "setting": "[1]", "result": "> 25", "unit": "µg/mL"}]}, {"smiles": "C/C(=N\\NC(=N)N)c1sc(-c2ccc(-c3ccccc3)cc2)nc1C", "values": [{"measurement": "efflux ratio", "setting": "[2]", "result": "> 2"}, {"measurement": "solubility kinetic at 2 h", "setting": "[6]", "result": 2.7, "unit": "µM"}, {"measurement": "MIC", "setting": "[1]", "result": "1.6 to 2.4", "unit": "µg/mL"}, {"measurement": "Papp B→A", "setting": "[5]", "result": 1.2, "unit": "×10⁻⁶ cm/s"}, {"measurement": "Time", "setting": "[7]", "result": 10, "unit": "h"}]}, {"smiles": "Cc1nc(-c2ccc(-c3ccccc3)cc2)sc1-c1ccnc(NC(C)C)n1", "values": [{"measurement": "MIC", "setting": "[1]", "result": "> 25", "unit": "µg/mL"}]}, {"smiles": "CCCNc1nccc(-c2sc(-c3ccc(-c4ccccc4)cc3)nc2C)n1", "values": [{"measurement": "MIC", "setting": "[1]", "result": "> 25", "unit": "µg/mL"}]}, {"smiles": "Cc1nc(-c2ccc(-c3ccccc3)cc2)sc1-c1ccnc(NC#N)n1", "values": [{"measurement": "MIC", "setting": "[1]", "result": "> 25", "unit": "µg/mL"}]}, {"smiles": "Cc1nc(-c2ccc(-c3ccccc3)cc2)sc1-c1ccnc(-c2ccncc2)n1", "values": [{"measurement": "MIC", "setting": "[1]", "result": "> 25", "unit": "µg/mL"}]}, {"smiles": "Cc1nc(-c2ccc(-c3ccccc3)cc2)sc1-c1ccnc(NC(=N)c2ccncc2)n1", "values": [{"measurement": "MIC", "setting": "[1]", "result": "> 25", "unit": "µg/mL"}]}, {"smiles": "Cc1nc(-c2ccc(-c3ccccc3)cc2)sc1-c1ccnc(NN)n1", "values": [{"measurement": "MIC", "setting": "[1]", "result": 1.56, "unit": "µg/mL"}]}, {"smiles": "Cc1nc(-c2ccc(-c3ccccc3)cc2)sc1-c1ccnc(N2CCN(C)CC2)n1", "values": [{"measurement": "MIC", "setting": "[8]", "result": 1, "unit": "µg/mL"}, {"measurement": "fractional inhibitory concentration index (FICI)", "setting": "[9]", "result": "0.03 - 0.53"}, {"measurement": "MIC", "setting": "[10]", "result": 32, "unit": "µg/mL"}, {"measurement": "Activity", "setting": "[11]", "result": "Non-Toxic"}, {"measurement": "MIC", "setting": "[12]", "result": "0.5 to 64", "unit": "µg/mL"}, {"measurement": "MIC", "setting": "[1]", "result": 6.25, "unit": "µg/mL"}, {"measurement": "MIC", "setting": "[13]", "result": 1, "unit": "µg/mL"}]}, {"smiles": "CNC(=N)Nc1nccc(-c2sc(-c3ccc(-c4ccccc4)cc3)nc2C)n1", "values": [{"measurement": "MIC", "setting": "[14]", "result": 16, "unit": "µg/mL"}, {"measurement": "MIC", "setting": "[15]", "result": 32, "unit": "µg/mL"}, {"measurement": "MBC", "setting": "[16]", "result": 64, "unit": "µg/mL"}, {"measurement": "MBC", "setting": "[17]", "result": 64, "unit": "µg/mL"}, {"measurement": "MIC", "setting": "[18]", "result": 8, "unit": "µg/mL"}, {"measurement": "MBC", "setting": "[19]", "result": 64, "unit": "µg/mL"}, {"measurement": "MIC", "setting": "[20]", "result": 8, "unit": "µg/mL"}, {"measurement": "MBC", "setting": "[21]", "result": 16, "unit": "µg/mL"}, {"measurement": "MIC", "setting": "[10]", "result": 32, "unit": "µg/mL"}, {"measurement": "MIC", "setting": "[22]", "result": 64, "unit": "µg/mL"}, {"measurement": "MIC", "setting": "[1]", "result": 1.56, "unit": "µg/mL"}, {"measurement": "MBC", "setting": "[23]", "result": 32, "unit": "µg/mL"}, {"measurement": "MBC", "setting": "[24]", "result": 16, "unit": "µg/mL"}]}, {"smiles": "Cc1nc(-c2ccc(-c3ccccc3)cc2)sc1-c1ccnc(NC2CCCC2)n1", "values": [{"measurement": "MIC", "setting": "[1]", "result": "> 25", "unit": "µg/mL"}]}, {"smiles": "Cc1nc(-c2ccc(-c3ccccc3)cc2)sc1-c1ccnc(NC2CCCCC2)n1", "values": [{"measurement": "MIC", "setting": "[1]", "result": "> 25", "unit": "µg/mL"}]}, {"smiles": "Cc1nc(-c2ccc(-c3ccccc3)cc2)sc1-c1ccnc(NC(N)=S)n1", "values": [{"measurement": "MIC", "setting": "[1]", "result": "> 25", "unit": "µg/mL"}]}, {"smiles": "Cc1nc(-c2ccc(-c3ccccc3)cc2)sc1-c1ccnc(NN2CCOCC2)n1", "values": [{"measurement": "MIC", "setting": "[1]", "result": 3.12, "unit": "µg/mL"}]}]}
